Reference: patent publication US7169786B2, “Isoxazoline derivatives as anti-depressants” (priority 2001, dated 2007)

What was measured:
[1] = molecular target: T1, hα2A receptor (Homo sapiens, UniProt P08913); experiment: Radioligand binding experiment for hα2A receptor ([3H]-raulwolscine); conditions: membranes of CHO cells expressing human α2A receptor, [3H]raulwolscine 1 nM; for IC50: read-out: hα2A pIC50 (converted)
T1 construct: expressed in transfected cells
T1 sequence (P08913 1-465): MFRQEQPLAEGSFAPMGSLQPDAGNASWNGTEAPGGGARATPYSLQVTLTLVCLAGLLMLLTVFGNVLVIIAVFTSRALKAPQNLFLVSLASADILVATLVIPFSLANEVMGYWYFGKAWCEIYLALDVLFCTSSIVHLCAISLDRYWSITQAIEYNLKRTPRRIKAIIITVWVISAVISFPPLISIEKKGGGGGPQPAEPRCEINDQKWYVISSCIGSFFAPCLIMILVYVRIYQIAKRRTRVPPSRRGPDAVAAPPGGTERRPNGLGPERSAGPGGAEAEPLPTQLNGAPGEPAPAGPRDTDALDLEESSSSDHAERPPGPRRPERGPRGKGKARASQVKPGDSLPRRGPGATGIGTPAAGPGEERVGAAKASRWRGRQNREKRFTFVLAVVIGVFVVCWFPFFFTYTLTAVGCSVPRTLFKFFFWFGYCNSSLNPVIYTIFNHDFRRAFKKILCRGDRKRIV
Experimental: (§1) The interaction of the compounds of Formula (I) with hα2-receptors and h5-HT-transporters was assessed in in vitro radioligand binding experiments. In general, a low concentration of a radioligand with a high binding affinity for a particular receptor or transporter is incubated with a sample of a tissue preparation enriched in a particular receptor or transporter or with a preparation of cells expressing cloned human receptors in a buffered medium. During the incubation, the radioligand binds to the receptor or transporter. When equilibrium of binding is reached, the receptor bound radioactivity is separated from the non-bound radioactivity, and the receptor- or transporter-bound activity is counted. The interaction of the test compounds with the receptor is assessed in competition binding experiments. Various concentrations of the test compound are added to the incubation mixture containing the receptor- or transporter preparation and the radioligand. The test compound in proportion to its binding affinity and its concentration inhibits binding of the radioligand. The radioligand used for hα2A, hα2B and hα2C receptor binding was [^3H]-raulwolscine and for the h5-HT transporter was [^3H]paroxetine.
(§2) CHO cells, stabile transfected with human adrenergic-α2A-, -α2B or α2C receptor cDNA, were cultured in Dulbecco's Modified Eagle's Medium (DMEM)/Nutrient mixture Ham's F12 (ratio 1:1)(Gibco, Gent-Belgium) supplemented with 10% heat inactivated fetal calf serum (Life Technologies, Merelbeke-Belgium) and antibiotics (100 IU/ml penicillin G, 100 μg/ml streptomycin sulphate, 110 μg/ml pyruvic acid and 100 μg/ml L-glutamine). One day before collection, cells were induced with 5 mM sodiumbutyrate. Upon 80–90% of confluence, cells were scraped in phosphate buffered saline without Ca^2+ and Mg^2+ and collected by centrifugation at 1500×g for 10 min. The cells were homogenised in Tris-HCl 50 mM using an Ultraturrax homogenizer and centrifuged for 10 min at 23,500×g. The pellet was washed once by resuspension and rehomogenization and the final pellet was resuspended in Tris-HCl, divided in 1 ml aliquots and stored at −70° C.
(§3) Membranes were thawed and re-homogenized in incubation buffer (glycylglycine 25 mM, pH 8.0). […] Filters were rinsed extensively with ice-cold rinsing buffer (Tris-HCl 50 mM pH 7.4). Filter-bound radioactivity was determined by scintillation counting in a Topcount (Packard, Meriden, Conn.) and results were expressed as counts per minute (cpm). Non-specific binding was determined in the presence of 1 μM oxymetazoline for hα2A- and hα2B receptors and 1 μM spiroxatrine for hα2C receptors.
(§4) Data from assays in the presence of compound were calculated as a percentage of total binding measured in the absence of test compound. Inhibition curves, plotting percent of total binding versus the log value of the concentration of the test compound, were automatically generated, and sigmoidal inhibition curves were fitted using non-linear regression. The pIC50 values of test compounds were derived from individual curves.

[2] = molecular target: T2, hα2B receptor (Homo sapiens, UniProt P18089); experiment: Radioligand binding experiment for hα2B receptor ([3H]-raulwolscine); conditions: membranes of CHO cells expressing human α2B receptor, [3H]raulwolscine 1 nM; for IC50: read-out: hα2B pIC50 (converted)
T2 construct: expressed in transfected cells
T2 sequence (P18089 1-450): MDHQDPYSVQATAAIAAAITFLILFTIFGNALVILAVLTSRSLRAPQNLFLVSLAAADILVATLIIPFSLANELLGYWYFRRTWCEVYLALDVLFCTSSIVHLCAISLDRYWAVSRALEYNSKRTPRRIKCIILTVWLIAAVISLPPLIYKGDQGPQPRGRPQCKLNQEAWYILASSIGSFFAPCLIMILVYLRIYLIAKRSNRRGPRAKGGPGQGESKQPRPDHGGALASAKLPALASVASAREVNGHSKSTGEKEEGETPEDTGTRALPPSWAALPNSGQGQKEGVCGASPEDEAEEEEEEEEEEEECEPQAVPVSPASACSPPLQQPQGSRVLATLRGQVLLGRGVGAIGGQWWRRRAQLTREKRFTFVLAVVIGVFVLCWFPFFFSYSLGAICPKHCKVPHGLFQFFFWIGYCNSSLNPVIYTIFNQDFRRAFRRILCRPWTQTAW
Experimental: as §1, §2, §3, §4

[3] = molecular target: T3, hα2C receptor (Homo sapiens, UniProt P18825); experiment: Radioligand binding experiment for hα2C receptor ([3H]-raulwolscine); conditions: membranes of CHO cells expressing human α2C receptor, [3H]raulwolscine 1 nM; for IC50: read-out: hα2C pIC50 (converted)
T3 construct: expressed in transfected cells
T3 sequence (P18825 1-462): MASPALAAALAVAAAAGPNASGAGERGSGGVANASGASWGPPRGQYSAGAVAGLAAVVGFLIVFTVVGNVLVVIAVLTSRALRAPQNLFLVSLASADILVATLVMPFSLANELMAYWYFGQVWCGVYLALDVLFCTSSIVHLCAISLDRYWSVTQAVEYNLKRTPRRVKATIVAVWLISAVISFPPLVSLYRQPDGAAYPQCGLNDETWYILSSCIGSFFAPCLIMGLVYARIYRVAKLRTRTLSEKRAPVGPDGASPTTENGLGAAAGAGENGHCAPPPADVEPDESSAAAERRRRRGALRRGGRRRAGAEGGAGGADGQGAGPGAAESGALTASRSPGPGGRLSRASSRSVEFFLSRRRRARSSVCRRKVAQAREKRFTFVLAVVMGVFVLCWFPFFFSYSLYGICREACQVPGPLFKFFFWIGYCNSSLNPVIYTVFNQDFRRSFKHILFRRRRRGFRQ
Experimental: as §1, §2, §3, §4

[4] = molecular target: T4, h5-HT transporter (Homo sapiens, UniProt P31645); experiment: Radioligand binding experiment for 5-HT transporter ([3H]paroxetine, human platelet membranes); conditions: human platelet membranes, [3H]paroxetine 0.5 nM; for IC50: read-out: 5HTT pIC50 (converted)
T4 construct: Human platelet membranes (Oceanix Biosciences Corporation, Hanover, Md., USA) were thawed; tissue Oceanix Biosciences Corporation, Hanover, Md., USA; host or cells: human platelet membranes
Experimental: as §1
Human platelet membranes (Oceanix Biosciences Corporation, Hanover, Md., USA) were thawed, diluted in buffer (Tris-HCl 50 mM, 120 mM NaCl and 5 mM KCl) and quickly (max 3 s) homogenised with an Ultraturrax homogenizer. […] Filters were rinsed extensively with ice-cold buffer and radioactivity on the filters was counted in a Topcount liquid scintillation counter (Packard, Meriden, Conn.). Data were expressed as cpm. Imipramine (at 1 μM final concentration) was used to determine the non-specific binding.
as §4

T4 sequence (P31645 whole entry): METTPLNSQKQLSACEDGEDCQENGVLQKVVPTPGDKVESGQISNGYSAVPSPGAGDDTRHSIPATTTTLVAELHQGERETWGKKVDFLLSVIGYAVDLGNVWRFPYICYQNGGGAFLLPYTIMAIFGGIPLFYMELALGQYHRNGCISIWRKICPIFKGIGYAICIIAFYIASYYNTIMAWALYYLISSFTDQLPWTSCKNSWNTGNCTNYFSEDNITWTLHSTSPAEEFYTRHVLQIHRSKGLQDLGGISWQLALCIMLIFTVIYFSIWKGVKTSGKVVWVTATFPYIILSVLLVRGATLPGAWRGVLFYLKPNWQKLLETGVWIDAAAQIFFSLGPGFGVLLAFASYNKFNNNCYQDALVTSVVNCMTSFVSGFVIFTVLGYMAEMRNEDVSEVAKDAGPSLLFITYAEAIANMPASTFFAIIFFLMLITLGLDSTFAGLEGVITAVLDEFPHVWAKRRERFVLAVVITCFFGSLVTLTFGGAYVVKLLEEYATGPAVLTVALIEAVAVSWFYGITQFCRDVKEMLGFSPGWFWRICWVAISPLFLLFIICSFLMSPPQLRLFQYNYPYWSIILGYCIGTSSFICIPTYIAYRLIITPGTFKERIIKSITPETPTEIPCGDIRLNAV

| Structure (SMILES) | hα2A pIC50 [1] | hα2B pIC50 [2] | hα2C pIC50 [3] | 5HTT pIC50 [4] | IC50 [1] | IC50 [2] | IC50 [3] | IC50 [4] |
| --- | --- | --- | --- | --- | --- | --- | --- | --- |
| C(=Cc1ccccc1)CN1CCN(CC2ON=C3c4cc5c(cc4OCC32)OCC5)CC1 (racemic) [Compound 279] | 8.45 | 8.03 | 8.24 | 7.45 |  |  |  |  |
| COc1cc2c(cc1OC)C1=NOC(CN(C)C3CCN(Cc4ccc5ccccc5c4)CC3)C1CO2 (racemic) [Compound 281] | 7.05 | 7.19 | 7.31 | 7.25 |  |  |  |  |
| COc1cc2c(cc1OC)C1=NOC(CN(C=O)C3CCN(Cc4ccc5ccccc5c4)CC3)C1CO2 (racemic) [Compound 282] | 7.66 | 7.26 | 7.64 | 8.06 |  |  |  |  |
| COc1cc2c(cc1OC)C1=NOC(CN3CCN(C/C=C/C=C/c4ccccc4)CC3)C1CO2 (single isomer, unassigned) [Compound 127] |  |  |  |  | 141 nM | 123 nM | 25.7 nM | 63.1 nM |
| COc1cc2c(cc1OC)C1=NOC(CN3CCN(C/C=C/c4ccc(F)cc4F)CC3)C1CO2 (single isomer, unassigned) [Compound 185] |  |  |  |  | 145 nM | 77.6 nM | 29.5 nM | 12.6 nM |
| COc1cc2c(cc1OC)C1=NOC(CN3CCN(C/C=C/c4ccsc4)CC3)C1CO2 (single isomer, unassigned) [Compound 314] |  |  |  |  | 11.2 nM | 6.92 nM | 6.46 nM | 8.71 nM |
| COc1cc2c(cc1OC)C1=NOC(CN3CCN(C(C)/C=C/c4ccccc4)CC3)C1CO2 (single isomer, unassigned) [Compound 316] |  |  |  |  | 10.5 nM | 174 nM | 120 nM | 407 nM |
| COc1cc2c(cc1OC(C)=O)C1=NOC(CN3CCN(C/C(C)=C/c4ccccc4)CC3)C1CO2 (single isomer, unassigned) [Compound 333] |  |  |  |  | 4.79 nM | 3.8 nM | 4.68 nM | 30.2 nM |
| C(=Cc1ccccc1)CN1CCN(CC2ON=C3c4ccccc4CCC32)CC1 (stereo not drawn) [Comp 218] |  |  |  |  | 182 nM | 132 nM | 1260 nM | 457 nM |
| COc1ccc2c(c1)CCC1C2=NOC1CN1CCN(CC=Cc2ccccc2)CC1 (stereo not drawn) [Comp 220] |  |  |  |  | 7.59 nM | 14.1 nM | 43.7 nM | 66.1 nM |
| COc1cc2c(cc1O)OCC1C2=NOC1CN1CCN(C/C(C)=C/c2ccccc2)CC1 (stereo not drawn) [Compound 3] |  |  |  |  | 2.34 nM | 2.57 nM | 1.86 nM | 16.2 nM |
| COc1cc2c(cc1OC)C1=NOC(CN3CCN(Cc4cccc(Cl)c4)CC3)C1CO2 (stereo not drawn) [Compound 14] |  |  |  |  | 427 nM | 646 nM | 263 nM | 363 nM |
